Source: US20220057383A1, “USE OF BIOMARKERS TO EVALUATE THE EFFICACY OF A COMPOSITION IN REDUCING THE EFFECTS OF CANCER THERAPEUTICS ON SKIN” (Johnson & Johnson Consumer Inc., priority 2019, published 2022)
Like-named read-outs stand apart in the source and are kept apart here.

Legend:
[1] = tested on: Reconstructed Human Epidermis (RHE) tissues
RHE keratinocytes = assay: Transcriptomic analysis (gene expression profiling) of RHE keratinocytes treated with afatinib; format: cell-based, human; details: 100 nM afatinib; for number of genes down-regulated compared to control / number of genes up-regulated compared to control: cut off 50%
[2] = human, in vivo; cited from earlier work
[3] = 100 nM afatinib vs control, cut off 1.2-fold, overall

Afatinib
FOXO3 phosphorylation ([1]; 100 nM afatinib): decreased
cellular senescence pathway, enrichment based on change of protein phosphorylation status ([1]; 100 nM afatinib): significant enrichment
number of phosphoproteins with changed phosphorylation status ([1]; 100 nM afatinib vs control, cut off 1.2-fold change (more than 20%), all time points): 62
number of proteins with a significant decrease of phosphorylation status [1, 3]: 18
number of proteins with a significant increase of phosphorylation status [1, 3]: 44
number of proteins showing decreased phosphorylation compared to control ([1]; 100 nM afatinib, 20 min): 3
number of proteins showing increased phosphorylation compared to control ([1]; 100 nM afatinib, 20 min): 6
PI3K-AKT pathway, Set Enrichment Analysis of phosphorylation status ([1]; 100 nM afatinib, 24 h): significant enrichment
number of proteins showing decreased phosphorylation compared to control ([1]; 100 nM afatinib, 24 h): 23
number of proteins showing increased phosphorylation compared to control ([1]; 100 nM afatinib, 24 h): 18
phosphorylation of MEK1 (Phospho-Ser217) ([1]; 100 nM afatinib, 24 h): not impacted
phosphorylation of MEK1 (Phospho-Ser221) ([1]; 100 nM afatinib, 24 h): not impacted
phosphorylation of Raf1 (Phospho-Ser338) ([1]; 100 nM afatinib, 24 h): decreased
phosphorylation of Raf1 (Phospho-Tyr341) ([1]; 100 nM afatinib, 24 h): not impacted
phosphorylation of eIF4E (Phospho-Ser209) ([1]; 100 nM afatinib, 24 h): decreased
number of proteins showing decreased phosphorylation compared to control ([1]; 100 nM afatinib, 72 h): 6
number of proteins showing increased phosphorylation compared to control ([1]; 100 nM afatinib, 72 h): 6
expression of genes related to inflammation (Th1 response) (RHE keratinocytes): did not show any increase
genes involved in innate immunity (S100 family, SPRR2B, DEFB1) (RHE keratinocytes): negatively regulated
number of genes down-regulated compared to control (RHE keratinocytes; 6 h): 170
number of genes up-regulated compared to control (RHE keratinocytes; 6 h): 201
expression of KRT2, KRT9, KRT13, KRT15 and Late Cornified Envelop genes (LCE2A, LCE1B, LCE2B, LCE1C, LCE2D) (RHE keratinocytes; 24 h): increase
expression of metallothionein panel (MT1E, MT1L, MT1H L1, MT1X, MT1B, MT1A) (RHE keratinocytes; 24 h): decreased
number of genes down-regulated compared to control (RHE keratinocytes; 24 h): 335
number of genes up-regulated compared to control (RHE keratinocytes; 24 h): 281
expression of CYP (CYP4B1, CYP3A7, CYP3A5, CYP2J2, CYP4A11, CYP1A1, CYP4F22) (RHE keratinocytes; 24 h and 72 h): decreased
expression of CYP (Inc-CYP24A1-1, CYP27A1, CYP4F12) (RHE keratinocytes; 24 h and 72 h): increased
expression of SIRT4 (RHE keratinocytes; 72 h): increased
expression of antioxidant enzymes PRDX2 and PRDX3 (RHE keratinocytes; 72 h): decreased
expression of metallothionein panel (MT1E, MT1L, MT1H L1, MT1X, MT1B, MT1A) (RHE keratinocytes; 72 h): increased
genes related to IL4 and IL13 signaling (Th2 response) (RHE keratinocytes; cluster C2): over representation
genes related to the PI3K/AKT pathway (RHE keratinocytes; cluster C6): upregulation
number of dysregulated genes (RHE keratinocytes; cut-off 50% fold-change, different time points): 2,182
inflammasome response via TLR, NLR and IL1 families (RHE keratinocytes; protein phosphorylation assay and gene expression array): decreased
appearance of granulomas versus other EGFRi [2]: more frequent appearance of granulomas
